Measured values from US20130079345A1, “[…] ACTIVE DISUBSTITUTED TRIAZINE DERIVATIVES” (BAYER INTELLECTUAL PROPERTY GMBH, priority 2010, published 2013).

Key:
CDK9/CycT1 = target: T1, CDK9/CycT1 (Homo sapiens, UniProt P50750); test: CDK9/CycT1 kinase assay (TR-FRET); format: biochemical; details: ATP 10 μM
T1 construct: Recombinant full-length His-tagged human CDK9 and CycT1; His; purchased Invitrogen PV4131; host or cells: insect cells
Excerpt: CDK9/CycT1-inhibitory activity of compounds of the present invention was quantified employing the CDK9/CycT1 TR-FRET assay as described in the following paragraphs.
Recombinant full-length His-tagged human CDK9 and CycT1, expressed in insect cells and purified by Ni-NTA affinity chromatography, were purchased from Invitrogen (catalogue number PV4131). A biotinylated peptide biotin-Ttds-[…] (C-terminus in amide form), which can be purchased from e.g the company JERINI Peptide Technologies (Berlin, Germany), was used as a substrate for the kinase reaction.
(§1) For the assay, 50 nl of a 100-fold concentrated solution of the test compound in DMSO was pipetted into a well of a black low-volume 384-well microtiter plate (Greiner Bio-One, Frickenhausen, Germany), 2 μl of a solution of CDK9/CycT1 in aqueous assay buffer [50 mM Tris/HCl pH 8.0], 10 mM MgCl2, 1.0 mM dithiothreitol, 0.1 mM sodium ortho-vanadate, 0.01% (v/v) Nonidet-P40 (Sigma)] were added. The mixture was incubated at 22° C. for 15 min to allow pre-binding of the test compounds to the enzyme before the start of the kinase reaction. […] The resulting mixture was incubated at 22° C. for a reaction time of 25 minutes. The concentration of CDK9/CycT1 was adjusted depending of the activity of the enzyme lot and was chosen appropriately for measurements in the linear range of the assay. Typical concentrations were in the range of 1 μg/ml. The reaction was stopped by the addition of 5 μl of a solution of TR-FRET detection reagents (0.2 μM streptavidine-XL and 1 nM anti-RB(pSer807/pSer811)-antibody from BD Pharmingen [#558389] and 1.2 nM LANCE EU-W1024 labeled anti-mouse IgG antibody [Perkin-Elmer, product no. AD0077]) in an aqueous EDTA-solution (100 mM EDTA, 0.2% (w/v) bovine serum albumin in 100 mM HEPES/NaOH, pH 7.0).
(§2) The resulting mixture was incubated at 22° C. for one hour to allow the formation of a complex between the phosphorylated biotinylated peptide and the detection reagents. Subsequently, the amount of phosphorylated substrate was evaluated by measurement of the resonance energy transfer from the Eu-chelate to the streptavidine-XL. Therefore, the fluorescence emissions at 620 nm and 665 nm after excitation at 350 nm were measured in a HTRF reader, e.g. a Rubystar (BMG Labtechnologies, Offenburg, Germany) or a Viewlux (Perkin-Elmer). The ratio of the emissions at 665 nm and at […] was taken as a measure for the amounts of phosphorylated substrate. The data were normalised, i.e. enzyme reaction without inhibitor corresponds to 0% inhibition, and all other assay components in the absence of the enzyme correspond to 100% inhibition. IC50 values were calculated by a 4-parameter fit using in-house software.

CDK2/CycE = target: T2, CDK2/CycE (Homo sapiens, UniProt P24941); test: CDK2/CycE kinase assay (TR-FRET); format: biochemical; details: ATP 10 μM
T2 construct: GST; purchased ProQinase GmbH (Freiburg, Germany); host or cells: insect cells (Sf-9)
Excerpt: CDK2/CycE-inhibitory activity of compounds of the present invention was quantified employing the CDK2/CycE TR-FRET assay as described in the following paragraphs.
Recombinant fusion proteins of glutathione S-transferase (GST) and human CDK2 and of GST and human CycE, expressed in insect cells (Sf-9) and purified by glutathion-sepharose affinity chromatography, were purchased from ProQinase GmbH (Freiburg, Germany). A biotinylated peptide biotin-Ttds-[…] (C-terminus in amide form), which can be purchased from e.g the company JERINI Peptide Technologies (Berlin, Germany), was used as a substrate for the kinase reaction.
as §1, with “of CDK2/CycE” for “of CDK9/CycT1”, “for” for “for a reaction time of”, “depending on” for “depending of”, “of 130 ng/ml.” for “of 1 μg/ml.”
as §2, with “measuring” for “measurement of”, “high time-resolved fluorometry (HTRF)” for “HTRF”

T1 sequence (P50750 whole entry): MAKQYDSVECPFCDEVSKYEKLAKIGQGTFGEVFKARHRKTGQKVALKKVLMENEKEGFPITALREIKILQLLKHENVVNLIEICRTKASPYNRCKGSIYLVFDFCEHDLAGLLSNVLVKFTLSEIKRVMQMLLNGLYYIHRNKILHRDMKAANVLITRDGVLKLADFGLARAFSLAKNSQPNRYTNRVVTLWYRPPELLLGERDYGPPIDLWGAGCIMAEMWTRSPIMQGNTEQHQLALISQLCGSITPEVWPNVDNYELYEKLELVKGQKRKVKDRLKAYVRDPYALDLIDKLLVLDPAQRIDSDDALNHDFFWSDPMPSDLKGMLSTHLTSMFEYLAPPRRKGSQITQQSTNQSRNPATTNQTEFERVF
T1 sequence (O60563 whole entry partner): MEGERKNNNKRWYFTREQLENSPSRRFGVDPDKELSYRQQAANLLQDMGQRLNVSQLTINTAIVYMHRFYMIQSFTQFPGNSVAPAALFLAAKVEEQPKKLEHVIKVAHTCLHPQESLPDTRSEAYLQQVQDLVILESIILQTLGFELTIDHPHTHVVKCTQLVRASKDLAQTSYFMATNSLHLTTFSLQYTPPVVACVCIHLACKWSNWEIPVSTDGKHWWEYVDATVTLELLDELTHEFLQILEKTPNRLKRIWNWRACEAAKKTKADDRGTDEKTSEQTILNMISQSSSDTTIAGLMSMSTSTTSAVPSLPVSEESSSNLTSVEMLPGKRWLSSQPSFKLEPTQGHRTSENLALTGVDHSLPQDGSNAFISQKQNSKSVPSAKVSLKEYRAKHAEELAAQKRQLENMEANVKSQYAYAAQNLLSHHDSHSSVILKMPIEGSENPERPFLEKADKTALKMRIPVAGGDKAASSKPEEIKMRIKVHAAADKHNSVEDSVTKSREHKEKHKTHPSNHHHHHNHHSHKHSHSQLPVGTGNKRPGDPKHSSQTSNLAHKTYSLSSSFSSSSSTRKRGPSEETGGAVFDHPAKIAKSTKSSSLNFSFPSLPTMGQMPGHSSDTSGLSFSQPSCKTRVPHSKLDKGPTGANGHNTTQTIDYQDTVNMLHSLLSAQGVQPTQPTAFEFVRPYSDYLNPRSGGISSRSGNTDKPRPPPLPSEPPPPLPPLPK

Row | SMILES | IC50 (CDK9/CycT1; values in nM) | IC50 (CDK2/CycE; values in nM) | IC50 (CDK9/CycT1; values given in μM) | IC50 (CDK2/CycE; values given in μM)
1 | COc1ccccc1-c1ncnc(Nc2cccc(S(N)(=O)=O)c2)n1 [Compound C1, 3-[(4-(2-Methoxyphenyl)-1,3,5-triazin-2-yl)amino]benzenesulfonamide] | 10 nM | 450 nM | – | –
2 | NS(=O)(=O)Cc1cccc(Nc2ncnc(-c3ccc(F)cc3C(F)(F)F)n2)c1 [Compound U1, 1-[3-({4-[4-fluoro-2-(trifluoromethyl)phenyl]-1,3,5-triazin-2-yl}amino)phenyl]methanesulfonamide] | – | – | 15000 nM | 15000 nM
3 | CC(=O)Nc1cc(F)ccc1-c1ncnc(Nc2cccc(CS(N)(=O)=O)c2)n1 [Compound U4, N-[5-fluoro-2-(4-{[3-(sulfamoylmethyl)phenyl]amino}-1,3,5-triazin-2-yl)phenyl]acetamide] | – | – | 3600 nM | 3000 nM
4 | NS(=O)(=O)Cc1cccc(Nc2ncnc(-c3ccc(F)cc3OCC3CC3)n2)c1 [Compound U5, 1-[3-({4-[2-(cyclopropylmethoxy)-4-fluorophenyl]-1,3,5-triazin-2-yl}amino)phenyl]methanesulfonamide] | 34 nM | – | – | 1600 nM
5 | COc1c(-c2ncnc(Nc3cccc(CS(N)(=O)=O)c3)n2)ccc(F)c1F [Compound U6, 1-(3-{[4-(3,4-difluoro-2-methoxyphenyl)-1,3,5-triazin-2-yl]amino}phenyl)methanesulfonamide] | 370 nM | – | – | 12000 nM
6 | Cc1ccc(Cl)cc1-c1ncnc(Nc2ccc(Cl)cc2)n1 [Ref3, [6-(5-Chloro-2-methyl-phenyl)-[1,3,5]triazin-4-yl]-(4-chloro-phenyl)-amine, reference compound] | – | – | > 20000 nM | > 20000 nM
7 | NC(=O)c1ccc(Nc2ncnc(-c3ccccc3NC(=O)c3ccccc3)n2)cc1 [Ref5, 4-[4-(2-Benzoylaminophenyl)-[1,3,5]triazin-2-ylamino]benzamide, reference compound] | – | – | 8400 nM | 14000 nM
